Converted amounts (≈) assume the structure as drawn. Where two headings read alike, the source gives them in different places.
Legend:
[1] = test system: Staphylococcus aureus ATCC 33591; assay: MIC microdilution assay; type: cell-based; details: Staphylococcus aureus, ATCC33591; S. aureus ATCC 33591; CAMHB; 35±2° C. 18 to 20 hours; two values given; read-out: MIC
Method: (§1) Strain numbers starting with “ATCC” were acquired from the American Type Culture Collection (Manassas, VA), while strain numbers starting with “CDC” were acquired from the Centers for Disease Control and Prevention (Atlanta, GA). All strains were maintained as −80° C. frozen glycerol stocks. S. aureus and P. aeruginosa were grown overnight on Tryptic Soy Agar (TSA) plates at 35±2° C., ambient atmosphere, while S. pyogenes was grown overnight on TSA+5% defibrinated sheep blood at 35±2° C., 5% CO2. All fungal species (i.e. C. albicans, C. auris and C. herbarum) were grown on Sabouraud Dextrose Agar (SDA) plates. C. herbarum was grown at 25±2° C. for 5 to 7 days, while all other fungal strains were grown at 35±2° C. overnight.
(§2) Test articles Compound 2 (batch #2G13A0.368) and Compound 23 (batch #2G17A0.372) were received and stored at 4° C. The antibiotic Tobramycin and antifungal Amphotericin B were used as quality control (QC) compounds for the MIC assay. Stock solutions of 3.2 mg/mL Tobramycin (Sigma-Aldrich, cat #T1783-500MG) and 3.2 mg/mL Amphotericin B (CP Lab Chemicals, cat #TOK-A007-1G) were prepared in sterile ultrapure water.
(§3) For bacteria strains, a few colonies of each strain were collected with a sterile swab and used to make a McFarland 0.5 standard solution (approximately 1×10^8 CFU/mL) in sterile PBS. The McFarland was then diluted 1:180 in Cation Adjusted Muller-Hinton Broth (CAMHB) for S. aureus and P. aeruginosa, and in CAVHIIB+5% defibrinated sheep blood for S. pyogenes. 90 μL of this inoculum was combined with 10 μL of the 10× test article in a 96-well plate for a final concentration of 1×.
(§4) All bacterial-strain MIC 96-well plates were incubated at 35±2° C. for 18 to 20 hours, while all Candida MIC 96-well plates were incubated at 35±2° C. for 24 to 48 hours. C. herbarum MIC 96-well plates were incubated at 25±2° C. for 3 to 5 days, until growth was visible in the growth control wells. After incubation, the 96-well plates were examined visually and on a spectrophotometer at absorbance OD650. […]

[2] = test system: P. aeruginosa ATCC 27853; assay: MIC microdilution assay; type: cell-based, Pseudomonas aeruginosa; details: Pseudomonas aeruginosa, ATCC27853, CAMHB, 35±2° C. 18 to 20 hours, two values given, read-out: MIC
Method: as §1, §2, §3, §4

[3] = test system: Candida auris CDC 0385; assay: MIC microdilution assay (Example 32); type: cell-based; details: Candidozyma auris, CDC0385; C. auris CDC 0385; RPMI media; 35±2° C. 24 to 48 hours; two values given; read-out: MIC
Method: (§5) Strain IDs starting with “ATCC” were acquired from the American Type Culture Collection (Manassas, VA), strain IDs starting with “Eurofins” were acquired from Eurofins (Herndon, VA), while strain IDs starting with “CDC” were acquired from the Centers for Disease Control and Prevention (Atlanta, GA). All strains were maintained as −80° C. frozen glycerol stocks. S. aureus and P. aeruginosa were grown overnight on Tryptic Soy Agar (TSA) plates at 35±2° C., ambient atmosphere, while S. pyogenes was grown overnight on TSA+5% defibrinated sheep blood at 35±2° C., 5% CO2. C. jejuni was grown for 48 hours on TSA+5% defibrinated sheep blood at 35±2° C., in a microaerophilic environment generated by CampyGen sachet. All fungal species (i.e. C. albicans and C. auris) were grown overnight on Sabouraud Dextrose Agar (SDA) plates at 35±2° C., ambient atmosphere.
as §2, with “Test article” for “Test articles”, “Compound 1” for “Compound 2”, “(batch #7G30A9.203) was” for “(batch #2G13A0.368) and Compound 23 (batch #2G17A0.372) were received and”
as §3, with “aeruginosa. S. pyogenes McFarland was diluted 1:180” for “aeruginosa, and”, “CAMHB+5%” for “CAVHIIB+5%”, “blood, while C. jejuni McFarland was diluted 1:180 in CAMHB+5% laked horse blood.” for “blood for S. pyogenes.”
(§6) For the yeasts C. albicans and C. auris, a McFarland 0.5 standard solution in sterile PBS was similarly prepared (approximately 1×10^6 CFU/mL) and was subsequently diluted 1:180 in RPMI 1640 media buffered with 0.165 M MOPS at pH 7.0 (herein referred to as “RPMI media”). 90 μL of the Candida inoculum was combined with 10 μL of the 10× test article in a 96-well plate for a final concentration of 1×.
(§7) Except for C. jejuni, all bacterial-strain MIC 96-well plates were incubated at 35±2° C. for 18 to 20 hours, ambient atmosphere. C. jejuni was incubated at 35±2° C. for 48 hours, under microaerophilic condition. All Candida MIC 96-well plates were incubated at 35±2° C. for 24 to 48 hours, ambient atmosphere, until growth in control wells were observed. After incubation, the 96-well plates were examined visually and on a spectrophotometer at absorbance OD650. MIC is defined as the lowest concentration of a compound in which no visible growth is observed.

[4] = test system: Candida albicans ATCC 90028; assay: MIC microdilution assay (Example 32); type: cell-based; details: Candida albicans, ATCC90028; C. albicans ATCC 90028 (quality control); RPMI media; 35±2° C. 24 to 48 hours; two values given; read-out: MIC
Method: as §5
as §2, with “Test article” for “Test articles”, “Compound 1” for “Compound 2”, “(batch #7G30A9.203) was” for “(batch #2G13A0.368) and Compound 23 (batch #2G17A0.372) were received and”
as §3, with “aeruginosa. S. pyogenes McFarland was diluted 1:180” for “aeruginosa, and”, “CAMHB+5%” for “CAVHIIB+5%”, “blood, while C. jejuni McFarland was diluted 1:180 in CAMHB+5% laked horse blood.” for “blood for S. pyogenes.”
as §6, §7

[5] = test system: Candida auris CDC 0381; assay: MIC microdilution assay; type: cell-based; details: Candidozyma auris, CDC0381; C. auris CDC 0381; RPMI media; 35±2° C. 24 to 48 hours; two values given; read-out: MIC
Method: as §1, §2, §3, §6
(§8) All bacterial-strain MIC 96-well plates were incubated at 35±2° C. for 18 to 20 hours, while all Candida MIC 96-well plates were incubated at 35±2° C. for 24 to 48 hours. C. herbarum MIC 96-well plates were incubated at 25±2° C. for 3 to 5 days, until growth was visible in the growth control wells. After incubation, the 96-well plates were examined visually and on a spectrophotometer at absorbance OD650. MIC is defined as the lowest concentration of a compound in which no visible growth is observed.

[6] = test system: Candida albicans ATCC 90028; assay: MIC microdilution assay; type: cell-based; details: Candida albicans, ATCC90028; C. albicans ATCC 90028; RPMI media; 35±2° C. 24 to 48 hours; two values given; read-out: MIC
Method: as §1, §2, §3, §6, §8

[7] = test system: S. pyogenes ATCC 51339; assay: MIC microdilution assay; type: cell-based, Steptococcus pyogenes; details: broth +5% defibrinated sheep blood, 35±2° C. 18 to 20 hours, two values given
Method: as §1, §2, §3, §4

NC[C@H]1O[C@H](O[C@H]2[C@H](O)[C@@H](O[C@H]3O[C@H](CO)[C@@H](O)[C@H](N)[C@H]3O)[C@H](N)C[C@@H]2N)[C@H](N)C[C@@H]1O [Tobramycin]
MIC [1]: > 32 µg/mL
MIC [2]: 0.25 µg/mL (≈ 0.535 µM)
MIC [3]: > 32 µg/mL
MIC [4]: > 32 µg/mL
MIC [5]: > 32 µg/mL
MIC [6]: > 32 µg/mL
MIC ([7]; S. pyogenes ATCC 51339): 32 µg/mL (≈ 68.4 µM)
MIC ([7]; Streptococcus pyogenes, ATCC51339, S. pyogenes ATCC 51339, read-out: MIC): 16 µg/mL (≈ 34.2 µM)

Source: patent US12264170B2, “Antimicrobial organosilanes” (TOPIKOS SCIENTIFIC, INC., priority 2019, dated 2025)
